Results from ChEMBL document CHEMBL1201861, “Genomics of Drug Sensitity in Cancer screening data, Wellcome Trust Sanger Institute”.

What was measured:
Assay in all cases: cells
Assay type in all cases: functional, cell-based
Details in all cases: Homo sapiens
[1] = tested on: KP-N-YS;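 also: cell viability assay measuring inhibition of cell line growth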
Description: SANGER: Inhibition of human KP-N-YS cell growth in a cell viability assay.

[2] = tested on: DEL;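 also: growth inhibition of the human DEL cell line, read out with a cell viability assay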
Description: SANGER: Inhibition of human DEL cell growth in a cell viability assay.

[3] = tested on: CGTH-W-1;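 also: growth inhibition of human CGTH-W-1 cells measured by cell viability assay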
Description: SANGER: Inhibition of human CGTH-W-1 cell growth in a cell viability assay.

[4] = tested on: LC-2-ad;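 also: growth inhibition of human LC-2-ad cells, read out with a cell viability assay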
Description: SANGER: Inhibition of human LC-2-ad cell growth in a cell viability assay.

[5] = tested on: DJM-1;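 also: growth inhibition of human DJM-1 cells, read out by a cell viability assay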
Description: SANGER: Inhibition of human DJM-1 cell growth in a cell viability assay.

[6] = tested on: TE-12;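 also: growth inhibition of TE-12 cells, read out by a cell viability assay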
Description: SANGER: Inhibition of human TE-12 cell growth in a cell viability assay.

[7] = tested on: CTB-1
Description: SANGER: Inhibition of human CTB-1 cell growth in a cell viability assay.

[8] = tested on: BE-13;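 also: growth inhibition of human BE-13 cells, measured with a cell viability assay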
Description: SANGER: Inhibition of human BE-13 cell growth in a cell viability assay.

[9] = tested on: D283 Med
Description: SANGER: Inhibition of human D-283MED cell growth in a cell viability assay.

[10] = tested on: NCI-H209;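 also: growth inhibition of human NCI-H209 cells, measured by a cell viability assay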
Description: SANGER: Inhibition of human NCI-H209 cell growth in a cell viability assay.

[11] = tested on: EW-18;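 also: growth inhibition of EW-18 cells, read out by a cell viability assay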
Description: SANGER: Inhibition of human EW-18 cell growth in a cell viability assay.

[12] = tested on: CTV-1;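 also: growth inhibition of the cell line, read out with a cell viability assay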
Description: SANGER: Inhibition of human CTV-1 cell growth in a cell viability assay.

[13] = tested on: GOTO;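 also: growth inhibition of GOTO cells, read out by a cell viability assay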
Description: SANGER: Inhibition of human GOTO cell growth in a cell viability assay.

[14] = tested on: D-502MG
Description: SANGER: Inhibition of human D-502MG cell growth in a cell viability assay.

[15] = tested on: Calu-6;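 also: growth of human Calu-6 cells, read out by a cell viability assay, IC50 marking inhibition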
Description: SANGER: Inhibition of human Calu-6 cell growth in a cell viability assay.

[16] = tested on: GCIY;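 also: growth inhibition of the human GCIY cell line, read out by a cell viability assay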
Description: SANGER: Inhibition of human GCIY cell growth in a cell viability assay.

[17] = tested on: TE-8;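 also: growth inhibition of TE-8 cells, measured with a cell viability readout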
Description: SANGER: Inhibition of human TE-8 cell growth in a cell viability assay.

[18] = tested on: SK-LMS-1;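 also: growth inhibition of human SK-LMS-1 cells, read out with a cell viability assay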
Description: SANGER: Inhibition of human SK-LMS-1 cell growth in a cell viability assay.

[19] = tested on: HD-MY-Z;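 also: growth inhibition of HD-MY-Z cells, read out with a cell viability assay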
Description: SANGER: Inhibition of human HD-MY-Z cell growth in a cell viability assay.

[20] = tested on: OMC-1;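 also: growth inhibition of the OMC-1 cell line, measured by a cell viability assay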
Description: SANGER: Inhibition of human OMC-1 cell growth in a cell viability assay.

[21] = tested on: MFM-223
Description: SANGER: Inhibition of human MFM-223 cell growth in a cell viability assay.

[22] = tested on: SW684;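 also: growth inhibition of human SW684 cells, measured by a cell viability assay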
Description: SANGER: Inhibition of human SW684 cell growth in a cell viability assay.

[23] = tested on: MEG-01;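 also: growth inhibition of MEG-01 cells, read out by a cell viability assay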
Description: SANGER: Inhibition of human MEG-01 cell growth in a cell viability assay.

[24] = tested on: NOMO-1;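 also: growth inhibition of human NOMO-1 cells measured by a cell viability assay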
Description: SANGER: Inhibition of human NOMO-1 cell growth in a cell viability assay.

[25] = tested on: ES7;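 also: growth inhibition of cultured human ES7 cells, read out as cell viability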
Description: SANGER: Inhibition of human ES7 cell growth in a cell viability assay.

[26] = tested on: NCI-H1581;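 also: cell growth inhibition read out by a viability assay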
Description: SANGER: Inhibition of human NCI-H1581 cell growth in a cell viability assay.

[27] = tested on: LS-513
Description: SANGER: Inhibition of human LS-513 cell growth in a cell viability assay.

[28] = tested on: HDLM-2;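 also: cell viability assay measuring suppression of HDLM-2 proliferation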
Description: SANGER: Inhibition of human HDLM-2 cell growth in a cell viability assay.

[29] = tested on: CP66-MEL;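 also: growth inhibition of CP66-MEL cells determined in a cell viability assay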
Description: SANGER: Inhibition of human CP66-MEL cell growth in a cell viability assay.

[30] = tested on: NCI-H1155;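 also: cell growth inhibition measured by a viability assay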
Description: SANGER: Inhibition of human NCI-H1155 cell growth in a cell viability assay.

[31] = tested on: NTERA-2-cl-D1;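 also: inhibition of cell growth, measured with a cell viability assay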
Description: SANGER: Inhibition of human NTERA-S-cl-D1 cell growth in a cell viability assay.

[32] = tested on: BB49-HNC;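 also: cell viability assay read-out, reported as inhibition of BB49-HNC cell growth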
Description: SANGER: Inhibition of human BB49-HNC cell growth in a cell viability assay.

[33] = tested on: MZ1-PC;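 also: cell viability assay measuring growth inhibition of human MZ1-PC cells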
Description: SANGER: Inhibition of human MZ1-PC cell growth in a cell viability assay.

[34] = tested on: NEC8;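 also: growth inhibition of human NEC8 cells, read out by a cell viability assay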
Description: SANGER: Inhibition of human NEC8 cell growth in a cell viability assay.

[35] = tested on: SBC-1;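 also: cell viability assay measuring growth inhibition of the SBC-1 cell line, IC50 being the concentration that halves growth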
Description: SANGER: Inhibition of human SBC-1 cell growth in a cell viability assay.

[36] = tested on: DB
Description: SANGER: Inhibition of human DB cell growth in a cell viability assay.

[37] = tested on: NOS-1;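 also: growth inhibition of the human NOS-1 cell line, read out with a cell viability assay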
Description: SANGER: Inhibition of human NOS-1 cell growth in a cell viability assay.

[38] = tested on: Mo
Description: SANGER: Inhibition of human Mo-T cell growth in a cell viability assay.

[39] = tested on: A704;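 also: growth inhibition of human A704 cells, read out with a cell viability assay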
Description: SANGER: Inhibition of human A704 cell growth in a cell viability assay.

[40] = tested on: COLO-684
Description: SANGER: Inhibition of human COLO-684 cell growth in a cell viability assay.

[41] = tested on: HT-144
Description: SANGER: Inhibition of human HT-144 cell growth in a cell viability assay.

[42] = tested on: EW-1;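 also: growth inhibition of the human EW-1 cell line, read out by a cell viability assay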
Description: SANGER: Inhibition of human EW-1 cell growth in a cell viability assay.

[43] = tested on: EOL1;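 also: growth inhibition of EoL-1 cells, read out by a cell viability assay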
Description: SANGER: Inhibition of human EoL-1-cell cell growth in a cell viability assay.

[44] = tested on: KE-37;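 also: growth inhibition of KE-37 cells, read out with a cell viability assay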
Description: SANGER: Inhibition of human KE-37 cell growth in a cell viability assay.

[45] = tested on: HCC1187;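 also: growth inhibition of HCC1187 cells, read out with a cell viability assay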
Description: SANGER: Inhibition of human HCC1187 cell growth in a cell viability assay.

[46] = tested on: CW-2;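 also: growth inhibition of CW-2 cells, read out by a cell viability assay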
Description: SANGER: Inhibition of human CW-2 cell growth in a cell viability assay.

[47] = tested on: RH-1;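 also: growth inhibition of human RH-1 cells, read out with a cell viability assay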
Description: SANGER: Inhibition of human RH-1 cell growth in a cell viability assay.

[48] = tested on: HC-1;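 also: growth inhibition of HC-1 cells measured by a cell viability assay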
Description: SANGER: Inhibition of human HC-1 cell growth in a cell viability assay.

[49] = tested on: MC116;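 also: growth inhibition of MC116 cells, read out with a cell viability assay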
Description: SANGER: Inhibition of human MC116 cell growth in a cell viability assay.

[50] = tested on: MZ7-mel;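 also: growth inhibition of human MZ7-mel cells, measured by a cell viability assay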
Description: SANGER: Inhibition of human MZ7-mel cell growth in a cell viability assay.

[51] = tested on: EW-16;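 also: growth inhibition of human EW-16 cells, read out as cell viability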
Description: SANGER: Inhibition of human EW-16 cell growth in a cell viability assay.

[52] = tested on: IST-SL1;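 also: growth inhibition of human IST-SL1 cells, read out with a cell viability assay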
Description: SANGER: Inhibition of human IST-SL1 cell growth in a cell viability assay.

[53] = tested on: KARPAS-45;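 also: inhibition of cell line growth, read out through a viability assay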
Description: SANGER: Inhibition of human KARPAS-45 cell growth in a cell viability assay.

[54] = tested on: EW-24;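 also: human EW-24 cancer cell line, growth inhibition read out via a cell viability assay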
Description: SANGER: Inhibition of human EW-24 cell growth in a cell viability assay.

[55] = tested on: SW 962;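 also: growth inhibition of human SW962 cells, read out by a cell viability assay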
Description: SANGER: Inhibition of human SW962 cell growth in a cell viability assay.

[56] = tested on: NMC-G1;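 also: growth inhibition of the NMC-G1 cell line, measured with a cell viability read-out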
Description: SANGER: Inhibition of human NMC-G1 cell growth in a cell viability assay.

[57] = tested on: KNS-42;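 also: growth inhibition of KNS-42 cells, read out with a cell viability assay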
Description: SANGER: Inhibition of human KNS-42 cell growth in a cell viability assay.

[58] = tested on: MZ2-MEL;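 also: growth inhibition of MZ2-MEL cells read out with a cell viability assay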
Description: SANGER: Inhibition of human MZ2-MEL cell growth in a cell viability assay.

[59] = tested on: ES5;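 also: growth inhibition of human ES5 cells, read out by a cell viability assay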
Description: SANGER: Inhibition of human ES5 cell growth in a cell viability assay.

[60] = tested on: SW872
Description: SANGER: Inhibition of human SW872 cell growth in a cell viability assay.

[61] = tested on: JVM-2
Description: SANGER: Inhibition of human JVM-2 cell growth in a cell viability assay.

[62] = tested on: RPMI-8226
Description: SANGER: Inhibition of human RPMI-8226 cell growth in a cell viability assay.

[63] = tested on: RS4-11
Description: SANGER: Inhibition of human RS4-11 cell growth in a cell viability assay.

[64] = tested on: RKO
Description: SANGER: Inhibition of human RKO cell growth in a cell viability assay.

[65] = tested on: SK-N-DZ
Description: SANGER: Inhibition of human SK-N-DZ cell growth in a cell viability assay.

[66] = tested on: LAMA-84
Description: SANGER: Inhibition of human LAMA-84 cell growth in a cell viability assay.

CC[C@]1(O)C[C@@H]2CN(CCc3c([nH]c4ccccc34)[C@@](C(=O)OC)(c3cc4c(cc3OC)N(C)[C@H]3[C@@](O)(C(=O)OC)[C@H](OC(C)=O)[C@]5(CC)C=CCN6CC[C@]43[C@@H]65)C2)C1 [VINBLASTINE]
IC50 [1]: 22.9 nM | IC50 [2]: 2.16 nM | IC50 [3]: 5.56 nM | IC50 [4]: 7.9 nM | IC50 [5]: > 100 nM | IC50 [6]: > 100 nM | IC50 [7]: 1.64 nM | IC50 [8]: 1.42 nM | IC50 [9]: 39.1 nM | IC50 [10]: 13.1 nM | IC50 [11]: > 100 nM | IC50 [12]: 1.41 nM | IC50 [13]: 8.21 nM | IC50 [14]: 23.5 nM | IC50 [15]: > 100 nM | IC50 [16]: 49.7 nM | IC50 [17]: 6.16 nM | IC50 [18]: 58.6 nM | IC50 [19]: 3.33 nM | IC50 [20]: > 100 nM | IC50 [21]: > 100 nM | IC50 [22]: > 100 nM | IC50 [23]: 14.7 nM | IC50 [24]: 7.86 nM | IC50 [25]: 5.75 nM | IC50 [26]: 4.24 nM | IC50 [27]: 56.3 nM | IC50 [28]: > 100 nM | IC50 [29]: 48.6 nM | IC50 [30]: 43.7 nM | IC50 [31]: 5.89 nM | IC50 [32]: 12.6 nM | IC50 [33]: 24.2 nM | IC50 [34]: 5.12 nM | IC50 [35]: 8.1 nM | IC50 [36]: 1.69 nM | IC50 [37]: 40.9 nM | IC50 [38]: > 100 nM | IC50 [39]: > 100 nM | IC50 [40]: 7.67 nM | IC50 [41]: 3.32 nM | IC50 [42]: 3.15 nM | IC50 [43]: 1.26 nM | IC50 [44]: 3.99 nM | IC50 [45]: 2.75 nM | IC50 [46]: > 100 nM | IC50 [47]: 3.4 nM | IC50 [48]: 4.21 nM | IC50 [49]: 7.95 nM | IC50 [50]: 11.1 nM | IC50 [51]: 7.83 nM | IC50 [52]: 1.19 nM | IC50 [53]: 1.79 nM | IC50 [54]: 18 nM | IC50 [55]: 19.4 nM | IC50 [56]: 8.48 nM | IC50 [57]: 18.7 nM | IC50 [58]: 60.3 nM | IC50 [59]: 3.88 nM | IC50 [60]: > 100 nM | IC50 [61]: > 100 nM | IC50 [62]: 2.85 nM | IC50 [63]: 4.51 nM | IC50 [64]: 8.24 nM | IC50 [65]: 37.4 nM | IC50 [66]: 7.01 nM

Cc1nc(Nc2ncc(C(=O)Nc3c(C)cccc3Cl)s2)cc(N2CCN(CCO)CC2)n1 [DASATINIB]
IC50 [1]: > 1280 nM | IC50 [2]: > 1280 nM | IC50 [3]: 35.5 nM | IC50 [4]: 25.9 nM | IC50 [5]: > 1280 nM | IC50 [6]: 18.6 nM | IC50 [7]: > 1280 nM | IC50 [8]: > 1280 nM | IC50 [9]: > 1280 nM | IC50 [10]: > 1280 nM | IC50 [11]: > 1280 nM | IC50 [12]: < 5 nM | IC50 [13]: > 1280 nM | IC50 [14]: 1230 nM | IC50 [15]: > 1280 nM | IC50 [16]: 96.6 nM | IC50 [17]: 15.8 nM | IC50 [18]: > 1280 nM | IC50 [19]: > 1280 nM | IC50 [20]: > 1280 nM | IC50 [21]: > 1280 nM | IC50 [22]: 350 nM | IC50 [23]: < 5 nM | IC50 [24]: > 1280 nM | IC50 [25]: > 1280 nM | IC50 [26]: > 1280 nM | IC50 [27]: > 1280 nM | IC50 [28]: > 1280 nM | IC50 [29]: 195 nM | IC50 [30]: > 1280 nM | IC50 [31]: 123 nM | IC50 [32]: 386 nM | IC50 [33]: 31.2 nM | IC50 [34]: > 1280 nM | IC50 [35]: > 1280 nM | IC50 [36]: > 1280 nM | IC50 [37]: 6.13 nM | IC50 [38]: > 1280 nM | IC50 [39]: 14.9 nM | IC50 [40]: > 1280 nM | IC50 [41]: 536 nM | IC50 [42]: > 1280 nM | IC50 [43]: < 5 nM | IC50 [44]: > 1280 nM | IC50 [45]: > 1280 nM | IC50 [46]: > 1280 nM | IC50 [47]: > 1280 nM | IC50 [48]: > 1280 nM | IC50 [49]: 114 nM | IC50 [50]: 479 nM | IC50 [51]: 762 nM | IC50 [52]: > 1280 nM | IC50 [53]: > 1280 nM | IC50 [54]: 782 nM | IC50 [55]: 113 nM | IC50 [56]: 116 nM | IC50 [57]: 1240 nM | IC50 [58]: 285 nM | IC50 [59]: > 1280 nM | IC50 [60]: 41.6 nM | IC50 [61]: > 1280 nM | IC50 [62]: > 1280 nM | IC50 [63]: > 1280 nM | IC50 [64]: 530 nM | IC50 [65]: > 1280 nM | IC50 [66]: < 5 nM
